Assay [1] concerns the target Calcium/calmodulin-dependent protein kinase type II subunit delta (Homo sapiens) (UniProt Q13557). Put plainly: Selectivity interaction (Ambit KINOMEscan and KiNATiv profiling in Jurkat cells) EUB0000090b CAMK2D. It is filed as cell-based. As to conditions: at 1 µM.
The target of assay [2] is Fibroblast growth factor receptor 4 (Homo sapiens, UniProt P22455). Put plainly: Selectivity interaction (Ambit KINOMEscan and KiNATiv profiling in Jurkat cells) EUB0000090b FGFR4. The assay is classed as cell-based. As to conditions: at 1 µM.
Assay [3] deals with Sigma intracellular receptor 2 (Homo sapiens) (UniProt Q5BJF2). Put plainly: Selectivity interaction (GPCR panel (PDSP screen)) EUB0001079a TMEM97. As to conditions: at 10 µM.
Assay [4] has as its target Interferon-induced, double-stranded RNA-activated protein kinase (Homo sapiens) (UniProt P19525). Put plainly: Selectivity interaction (KinomeScan (DiscoverX)) EUB0000092b EIF2AK2. Particulars: at 10 µM.
The target of assay [5] is Serine/threonine-protein kinase NIM1 (Homo sapiens, UniProt Q8IY84). The experiment in a line: Selectivity interaction (KinomeScan (DiscoverX)) EUB0000092b NIM1K. Particulars: at 10 µM.
Assay [6] concerns the target T1, cAMP-dependent protein kinase catalytic subunit PRKX (Homo sapiens) (UniProt P51817).
T1 sequence (whole entry): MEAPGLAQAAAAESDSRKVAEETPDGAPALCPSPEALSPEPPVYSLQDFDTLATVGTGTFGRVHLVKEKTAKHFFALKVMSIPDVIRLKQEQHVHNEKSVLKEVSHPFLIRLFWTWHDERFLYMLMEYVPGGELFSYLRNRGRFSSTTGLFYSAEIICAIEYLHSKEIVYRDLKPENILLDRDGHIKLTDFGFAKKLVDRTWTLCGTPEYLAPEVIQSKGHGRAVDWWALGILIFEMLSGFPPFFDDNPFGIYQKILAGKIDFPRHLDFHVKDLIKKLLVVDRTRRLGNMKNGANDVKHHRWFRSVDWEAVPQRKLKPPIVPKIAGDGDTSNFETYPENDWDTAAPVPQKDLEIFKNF
Put plainly: Selectivity interaction (KinomeScan (DiscoverX)) EUB0000092b PRKX. Particulars: at 10 µM.

A further assay addresses Activated CDC42 kinase 1 (Homo sapiens, UniProt Q07912). The experiment in a line: Selectivity interaction (KinomeScan (DiscoverX)) EUB0000092b TNK2. Particulars: at 10 µM.
Assay [7] has as its target Tyrosine-protein kinase JAK1 (Homo sapiens, UniProt P23458). The experiment in a line: Selectivity interaction (KinomeScan (DiscoverX)) EUB0001049a JAK1. Particulars: at 1 µM.
Assay [8] addresses T2, Dual specificity mitogen-activated protein kinase kinase 3 (Homo sapiens) (UniProt P46734).
T2 sequence (whole entry): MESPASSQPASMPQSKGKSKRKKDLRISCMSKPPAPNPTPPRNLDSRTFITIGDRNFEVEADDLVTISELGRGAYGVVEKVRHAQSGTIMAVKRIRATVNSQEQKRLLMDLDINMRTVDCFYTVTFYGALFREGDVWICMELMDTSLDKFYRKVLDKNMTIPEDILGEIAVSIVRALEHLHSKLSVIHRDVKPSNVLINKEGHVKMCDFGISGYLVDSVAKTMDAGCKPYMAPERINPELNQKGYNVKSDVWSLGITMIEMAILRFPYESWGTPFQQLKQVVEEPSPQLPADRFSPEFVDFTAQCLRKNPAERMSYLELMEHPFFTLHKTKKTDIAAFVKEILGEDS
The experiment in a line: Selectivity interaction (KinomeScan (DiscoverX)) EUB0001049a MAP2K3. Particulars: at 1 µM.

Assay [9] concerns the target T3, Serine/threonine-protein kinase ULK3 (Homo sapiens) (UniProt Q6PHR2).
T3 sequence (whole entry): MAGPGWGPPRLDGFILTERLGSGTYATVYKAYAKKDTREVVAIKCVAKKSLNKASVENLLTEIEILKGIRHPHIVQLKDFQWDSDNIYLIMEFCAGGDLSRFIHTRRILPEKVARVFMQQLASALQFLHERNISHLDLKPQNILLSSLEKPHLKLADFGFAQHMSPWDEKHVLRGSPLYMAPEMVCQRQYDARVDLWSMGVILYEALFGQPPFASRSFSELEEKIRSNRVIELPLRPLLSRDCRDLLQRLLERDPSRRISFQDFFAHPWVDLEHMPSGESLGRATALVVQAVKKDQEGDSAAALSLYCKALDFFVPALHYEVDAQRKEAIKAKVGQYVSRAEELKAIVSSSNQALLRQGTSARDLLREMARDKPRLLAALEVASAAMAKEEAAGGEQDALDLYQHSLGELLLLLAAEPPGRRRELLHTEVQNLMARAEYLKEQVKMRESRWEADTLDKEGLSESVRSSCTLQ
Put plainly: Selectivity interaction (KinomeScan (DiscoverX)) EUB0000045b ULK3.

For assay [10], the target named is Phosphatidylinositol 4,5-bisphosphate 3-kinase catalytic subunit beta isoform (Homo sapiens) (UniProt P42338). Put plainly: Selectivity interaction (Adapta Assay) EUB0001632a PIK3CB. As to conditions: at 10 µM.
Assay [11] addresses Death-associated protein kinase 1 (Homo sapiens, UniProt P53355). The experiment in a line: Selectivity interaction (KinomeScan (DiscoverX)) EUB0000607a DAPK1. Particulars: at 10 µM.
Assay [12] concerns the target Serine/threonine-protein kinase 25 (Homo sapiens) (UniProt O00506). The experiment in a line: Selectivity interaction (SelectScreen profiling (Invitrogen)) EUB0000607a STK25. Particulars: at 2 µM.
For assay [13], the target named is Vascular endothelial growth factor receptor 2 (Homo sapiens, UniProt P35968). Put plainly: Selectivity interaction (KinomeScan (DiscoverX)) EUB0000229b KDR. As to conditions: at 10 µM.
For assay [14], the target named is T4, Serine/threonine-protein kinase RIO3 (Homo sapiens) (UniProt O14730).
T4 sequence (whole entry): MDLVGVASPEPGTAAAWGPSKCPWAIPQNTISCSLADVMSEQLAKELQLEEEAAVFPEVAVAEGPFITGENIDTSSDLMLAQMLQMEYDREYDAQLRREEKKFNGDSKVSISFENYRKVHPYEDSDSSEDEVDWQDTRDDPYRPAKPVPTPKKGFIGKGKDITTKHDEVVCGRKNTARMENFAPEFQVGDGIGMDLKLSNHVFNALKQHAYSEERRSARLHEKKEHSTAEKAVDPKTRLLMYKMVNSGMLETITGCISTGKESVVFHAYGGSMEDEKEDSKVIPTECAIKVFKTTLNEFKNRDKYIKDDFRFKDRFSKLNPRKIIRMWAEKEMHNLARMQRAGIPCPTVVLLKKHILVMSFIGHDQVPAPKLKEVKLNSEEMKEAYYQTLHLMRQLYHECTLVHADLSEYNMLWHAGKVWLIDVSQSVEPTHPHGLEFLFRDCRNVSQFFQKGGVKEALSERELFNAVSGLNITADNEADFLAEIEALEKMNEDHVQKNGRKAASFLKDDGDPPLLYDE
The experiment in a line: Selectivity interaction (KinomeScan (DiscoverX)) EUB0000595a RIOK3. As to conditions: at 10 µM.

The target of assay [15] is Proto-oncogene tyrosine-protein kinase Src (Homo sapiens, UniProt P12931). Put plainly: Selectivity interaction (KinomeScan (DiscoverX)) EUB0000595a SRC. As to conditions: at 10 µM.
For assay [16], the target named is ALK tyrosine kinase receptor (Homo sapiens, UniProt Q9UM73). The experiment in a line: Selectivity interaction (KinomeScan (DiscoverX)) EUB0000618a ALK. As to conditions: at 10 µM.

This passage reports % of control, % of inhibition and % binding results from ChEMBL document CHEMBL5465560, “Selectivity Literature for EUbOPEN Chemogenomic Library” (2024).

Sequence of Calcium/calmodulin-dependent protein kinase type II subunit delta (Homo sapiens) (Q13557 whole entry): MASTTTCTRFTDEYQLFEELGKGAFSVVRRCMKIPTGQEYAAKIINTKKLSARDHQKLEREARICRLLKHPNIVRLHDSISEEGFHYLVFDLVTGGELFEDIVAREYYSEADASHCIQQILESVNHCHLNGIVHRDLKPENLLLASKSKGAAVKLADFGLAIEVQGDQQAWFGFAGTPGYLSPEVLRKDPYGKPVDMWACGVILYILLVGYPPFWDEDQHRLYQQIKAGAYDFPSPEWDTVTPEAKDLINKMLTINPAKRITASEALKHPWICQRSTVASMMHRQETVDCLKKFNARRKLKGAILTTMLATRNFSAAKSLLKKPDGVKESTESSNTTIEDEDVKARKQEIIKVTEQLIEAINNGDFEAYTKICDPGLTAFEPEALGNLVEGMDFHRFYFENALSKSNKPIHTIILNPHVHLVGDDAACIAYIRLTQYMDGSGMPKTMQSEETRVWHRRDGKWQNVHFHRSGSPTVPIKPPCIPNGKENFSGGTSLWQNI
Sequence of Fibroblast growth factor receptor 4 (P22455 22-802 limits assumed): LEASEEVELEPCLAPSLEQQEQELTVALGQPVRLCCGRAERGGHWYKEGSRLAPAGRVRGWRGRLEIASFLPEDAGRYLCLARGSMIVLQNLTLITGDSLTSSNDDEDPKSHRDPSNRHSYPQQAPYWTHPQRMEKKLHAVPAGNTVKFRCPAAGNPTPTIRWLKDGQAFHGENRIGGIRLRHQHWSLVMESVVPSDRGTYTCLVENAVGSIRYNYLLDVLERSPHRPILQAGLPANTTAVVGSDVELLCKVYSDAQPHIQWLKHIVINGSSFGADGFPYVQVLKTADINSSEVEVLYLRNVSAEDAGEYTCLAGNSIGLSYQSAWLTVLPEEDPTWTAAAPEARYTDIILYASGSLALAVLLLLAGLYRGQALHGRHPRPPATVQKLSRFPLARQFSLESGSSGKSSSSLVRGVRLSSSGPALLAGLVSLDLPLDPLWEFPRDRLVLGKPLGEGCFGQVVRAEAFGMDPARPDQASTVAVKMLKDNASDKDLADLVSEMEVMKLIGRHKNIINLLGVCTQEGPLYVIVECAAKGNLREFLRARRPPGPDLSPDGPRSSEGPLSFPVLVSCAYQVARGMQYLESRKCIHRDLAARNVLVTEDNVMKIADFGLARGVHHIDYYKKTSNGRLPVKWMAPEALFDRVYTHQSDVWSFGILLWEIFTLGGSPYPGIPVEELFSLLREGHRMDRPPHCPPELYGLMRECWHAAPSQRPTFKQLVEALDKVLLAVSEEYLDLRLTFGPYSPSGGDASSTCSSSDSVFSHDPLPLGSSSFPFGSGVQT
Sequence of Tyrosine-protein kinase JAK1 (P23458 whole entry): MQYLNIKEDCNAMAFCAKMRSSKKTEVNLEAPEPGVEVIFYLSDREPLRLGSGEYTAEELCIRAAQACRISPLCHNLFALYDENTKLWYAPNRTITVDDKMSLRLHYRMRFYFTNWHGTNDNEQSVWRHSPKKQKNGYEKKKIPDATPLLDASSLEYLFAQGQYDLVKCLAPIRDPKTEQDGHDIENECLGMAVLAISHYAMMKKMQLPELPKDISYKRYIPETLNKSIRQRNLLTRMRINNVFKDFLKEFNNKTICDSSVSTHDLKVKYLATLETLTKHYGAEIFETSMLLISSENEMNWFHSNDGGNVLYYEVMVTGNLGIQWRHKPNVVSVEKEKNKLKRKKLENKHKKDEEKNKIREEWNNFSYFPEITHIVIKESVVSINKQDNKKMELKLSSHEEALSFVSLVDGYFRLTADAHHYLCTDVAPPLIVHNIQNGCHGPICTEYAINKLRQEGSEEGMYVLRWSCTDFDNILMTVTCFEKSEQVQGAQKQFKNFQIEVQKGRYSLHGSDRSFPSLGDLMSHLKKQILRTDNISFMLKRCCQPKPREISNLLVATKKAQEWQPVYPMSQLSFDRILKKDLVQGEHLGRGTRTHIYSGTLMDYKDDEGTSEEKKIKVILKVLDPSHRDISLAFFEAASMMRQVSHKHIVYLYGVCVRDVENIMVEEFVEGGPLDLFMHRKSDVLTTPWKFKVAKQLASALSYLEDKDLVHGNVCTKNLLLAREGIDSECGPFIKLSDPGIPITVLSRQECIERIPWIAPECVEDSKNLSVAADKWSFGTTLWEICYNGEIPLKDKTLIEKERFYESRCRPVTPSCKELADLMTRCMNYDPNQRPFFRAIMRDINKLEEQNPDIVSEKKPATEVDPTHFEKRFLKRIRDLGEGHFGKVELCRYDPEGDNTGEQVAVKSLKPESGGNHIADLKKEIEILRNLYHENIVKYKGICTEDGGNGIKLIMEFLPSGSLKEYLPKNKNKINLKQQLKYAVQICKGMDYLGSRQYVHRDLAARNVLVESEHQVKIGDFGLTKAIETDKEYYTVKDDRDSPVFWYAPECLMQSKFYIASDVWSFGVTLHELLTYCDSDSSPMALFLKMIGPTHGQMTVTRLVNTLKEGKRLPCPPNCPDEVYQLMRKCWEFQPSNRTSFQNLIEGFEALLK
Sequence of Phosphatidylinositol 4,5-bisphosphate 3-kinase catalytic subunit beta isoform (Homo sapiens) (P42338 whole entry, looked up, canonical isoform): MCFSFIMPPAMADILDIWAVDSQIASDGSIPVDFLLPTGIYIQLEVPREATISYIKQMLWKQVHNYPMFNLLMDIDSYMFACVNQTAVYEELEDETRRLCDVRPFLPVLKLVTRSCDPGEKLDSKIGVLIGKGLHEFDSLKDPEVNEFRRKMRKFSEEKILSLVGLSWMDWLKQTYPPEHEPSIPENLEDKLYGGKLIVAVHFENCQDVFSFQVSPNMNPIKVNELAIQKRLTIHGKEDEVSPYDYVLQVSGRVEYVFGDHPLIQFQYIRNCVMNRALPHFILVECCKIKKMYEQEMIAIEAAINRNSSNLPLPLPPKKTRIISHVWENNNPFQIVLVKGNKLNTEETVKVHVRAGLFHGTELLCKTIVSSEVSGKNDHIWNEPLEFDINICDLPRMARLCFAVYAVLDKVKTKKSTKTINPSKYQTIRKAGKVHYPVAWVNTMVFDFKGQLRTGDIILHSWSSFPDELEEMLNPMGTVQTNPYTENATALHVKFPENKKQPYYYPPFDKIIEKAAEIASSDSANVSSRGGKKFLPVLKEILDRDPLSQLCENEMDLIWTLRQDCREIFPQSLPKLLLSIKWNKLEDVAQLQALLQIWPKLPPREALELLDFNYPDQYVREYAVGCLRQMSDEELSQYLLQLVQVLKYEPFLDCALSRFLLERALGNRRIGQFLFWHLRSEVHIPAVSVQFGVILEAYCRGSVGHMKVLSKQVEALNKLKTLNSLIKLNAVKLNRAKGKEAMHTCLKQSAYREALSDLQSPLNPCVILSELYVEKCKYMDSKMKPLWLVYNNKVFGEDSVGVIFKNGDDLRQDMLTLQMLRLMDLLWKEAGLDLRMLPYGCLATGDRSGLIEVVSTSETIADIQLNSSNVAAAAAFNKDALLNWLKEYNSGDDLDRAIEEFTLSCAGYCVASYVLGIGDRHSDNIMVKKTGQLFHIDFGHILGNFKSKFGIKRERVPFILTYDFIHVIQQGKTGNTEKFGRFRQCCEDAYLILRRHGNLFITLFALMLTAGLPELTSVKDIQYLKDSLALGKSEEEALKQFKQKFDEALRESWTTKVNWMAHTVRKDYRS
Sequence of Sigma intracellular receptor 2 (Homo sapiens) (Q5BJF2 whole entry): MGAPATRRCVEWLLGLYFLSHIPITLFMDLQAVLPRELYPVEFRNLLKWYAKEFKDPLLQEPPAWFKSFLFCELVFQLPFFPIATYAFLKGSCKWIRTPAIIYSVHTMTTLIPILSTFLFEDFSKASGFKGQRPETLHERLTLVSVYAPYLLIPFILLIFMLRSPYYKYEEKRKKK
Sequence of Serine/threonine-protein kinase 25 (Homo sapiens) (O00506 whole entry, looked up): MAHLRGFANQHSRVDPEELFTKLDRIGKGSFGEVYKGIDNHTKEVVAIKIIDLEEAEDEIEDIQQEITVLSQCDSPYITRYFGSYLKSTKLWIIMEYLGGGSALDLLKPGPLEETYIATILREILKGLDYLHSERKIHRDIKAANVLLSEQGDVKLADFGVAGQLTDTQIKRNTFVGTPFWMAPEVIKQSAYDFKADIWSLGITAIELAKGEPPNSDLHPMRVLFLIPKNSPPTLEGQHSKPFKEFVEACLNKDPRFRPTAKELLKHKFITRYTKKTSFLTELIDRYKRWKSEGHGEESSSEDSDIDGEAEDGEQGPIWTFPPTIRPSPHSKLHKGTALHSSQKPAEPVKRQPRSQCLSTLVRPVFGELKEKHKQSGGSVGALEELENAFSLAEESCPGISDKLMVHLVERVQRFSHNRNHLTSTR
Sequence of Serine/threonine-protein kinase NIM1 (Q8IY84 whole entry): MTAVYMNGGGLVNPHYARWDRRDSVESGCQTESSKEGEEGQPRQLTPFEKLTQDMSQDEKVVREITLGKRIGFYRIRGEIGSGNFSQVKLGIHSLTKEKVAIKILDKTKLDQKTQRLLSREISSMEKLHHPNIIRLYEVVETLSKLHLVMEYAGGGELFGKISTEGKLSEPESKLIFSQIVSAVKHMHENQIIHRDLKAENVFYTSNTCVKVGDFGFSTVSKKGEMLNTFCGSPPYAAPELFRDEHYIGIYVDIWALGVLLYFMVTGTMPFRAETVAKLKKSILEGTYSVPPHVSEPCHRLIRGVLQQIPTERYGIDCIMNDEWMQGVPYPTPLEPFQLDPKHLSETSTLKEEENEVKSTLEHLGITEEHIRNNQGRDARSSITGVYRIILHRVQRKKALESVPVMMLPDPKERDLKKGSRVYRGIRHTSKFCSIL

With `CN(C)C/C=C/C(=O)Nc1ccc(C(=O)N2CCCC(Nc3ncc(Cl)c(-c4c[nH]c5ccccc45)n3)C2)cc1` (stereo not drawn), the % of control was determined as 88% in assay [1] and 86% in assay [2].

For the compound `Nc1cnc(N2CCc3cc(S(=O)(=O)Nc4c(F)cc(Cl)cc4F)cc(N4CCCC4=O)c32)nc1` [TP-020n], the % of inhibition in [3] is -12%.

On to `CCC(=O)N1CCN(c2ccc(-n3c(=O)ccc4cnc5ccc(-c6cnc7ccccc7c6)cc5c43)cc2C(F)(F)F)CC1`, for which the % of control came to 88% in assay [4], 84% in assay [5], 83% in assay [6] and 51% on Activated CDC42 kinase 1.

Regarding `COc1cc(Nc2nc(C)cc(-c3cnn4nc(OC)ccc34)n2)cc(C(F)(F)F)c1`, the % of control in [7] stood at 100%; in [8], 86%.

As to `C=CC(=O)Nc1cc(-n2c(=O)ccc3cnc4ccc(-c5ccc(NS(C)(=O)=O)cc5)cc4c32)ccc1C`, the % of control in [9] (at 1 µM) stood at 80%; in assay [9] (at 10 µM) it was 100%.

Turning to `Cn1cc(-n2cnc3c(NCc4nc5cc(Cl)c(Cl)cc5[nH]4)nc(N4CCOCC4)nc32)cn1`, the % of inhibition in [10] turned out to be 11.6%.

On to `CNC(=O)Nc1ccc(-c2nc(N3CC4CCC(C3)O4)c3cnn(C4CCC5(CC4)OCCO5)c3n2)cc1`, for which, in assay [11], the % of control was 12%. Moreover, in assay [12], the % of inhibition amounted to 2%.

Compound `COc1cc(N(C)c2ccnc3ccc(C(F)(F)F)cc23)cc(OC)c1OC` came in with a % binding in [13] of 85%.

`COCC(=O)NC/C=C/c1ccc2ncnc(Nc3ccc(Oc4ccc(C)nc4)c(C)c3)c2c1` [CP-724714]: the % of control was 100% in assay [14] and 97% in assay [15].

`O[C@H]1CC[C@H](Nc2ncc3nc(Nc4c(F)cc(F)cc4F)n([C@H]4CCOC4)c3n2)CC1`: the % of control in assay [16] came out at 100%.
